# Measurements: patent US20080167271A1, “PHARMACEUTICAL COMPOSITIONS COMPRISING A BISPHOSPHONATE COMPOUND” (Besins Healthcare SA, priority 2006, published 2008)
# Read-outs that look alike come from different tables or passages of the source.
# Key:
# [1] = Bisphosphonate concentration at about 90% saturation in vehicles; format: physicochemical
# ovariectomized rats = system: ovariectomized rats
# Excerpt: Ovariectomized rats are a recognised model for bone loss study, as the surgical operation causes an estrogen deficiency which results in rapid bone loss. See Guideline on the evaluation of medicinal products in the treatment of primary osteoporosis, CPMP/EWP/552/95 available for download from the European Medicine Agency at: http://www.emea.europa.eu/.
# 13-week old rats (Sprague-Dawley, virgin female), 8 per group, were sham operated (group 1-control) or ovariectomized (OVX) (groups 2 to 7) on the day before the first day of treatment. […] The ratio of D-Pyr to Creat is a recognised marker of bone resorption. See, e.g., Christenson RH “Biochemical markers of bone metabolism: an overview” Clin Biochem 1997, 30(8), 573-593.
# Femur and L2-L5 lumbar vertebrae block Bone Mineral Density (BMD) were calculated from in vivo Dual-energy X-ray Absorptiometry (DXA) measurement at the same time points with an Hologic apparatus. BMD was also measured ex vivo on dissected femur and L4 vertebrae at the end of the treatment period.
# [2] = humans; cited from earlier work
# [3] = rat, published data (Lin et al., J Pharm Sci); cited from earlier work
# [4] = Solubility of menthol in hydroalcoholic mixtures with bisphosphonate at 90% saturation (GC-FID); conditions: QS 100 g phosphate buffer pH 6
# [5] = system: human abdominal dermatomed skin; test: In vitro dermal absorption, Franz cell assay; format: in vitro ADME
# [6] = buffered hydroalcoholic solution 90/10 buffer/ethanol
# [7] = group 3: OVX rats, 2 μg/kg sc inj daily
# [8] = group 4: OVX rats, topical 4.46 mg/kg daily (15.6 mg/kg/d for first 2 weeks)
# [9] = group 5: OVX rats, topical 15.6 mg/kg weekly
# [10] = group 7: OVX rats, topical 10.85 mg/kg twice weekly (15.6 mg/kg twice a week for first 2 weeks)
smiles,measurement,setting,value
O=P([O-])(O)C(O)(Cc1cccnc1)P(=O)(O)O.[Na+] [Sodium Risedronate],anhydrous concentration (w/w) at about 90% saturation,[1]; Water/ethanol ratio (v/v) 50/50,0.02%
same,anhydrous concentration (w/w) at about 90% saturation,[1]; Water/ethanol ratio (v/v) 60/40,0.17%
same,anhydrous concentration (w/w) at about 90% saturation,[1]; Water/ethanol ratio (v/v) 70/30,0.22%
same,anhydrous concentration (w/w) at about 90% saturation,[1]; Water/ethanol ratio (v/v) 80/20,0.77%
same,anhydrous concentration (w/w) at about 90% saturation,[1]; Water/ethanol ratio (v/v) 90/10,1.66%
"NCCCC(O)(P(=O)(O)O)P(=O)(O)O [alendronate, 4-amino-1-hydroxybutylidene-1,1-bisphosphonic acid]",concentration of anhydrous monosodium salt at 90% saturation,[1]; [6],10.4 mg/g
same,concentration of anhydrous monosodium salt at 90% saturation,[1]; pure water,28.09 mg/g
same,BMD results compared with subcutaneous injection (group 3) or control (group 1),"ovariectomized rats; OVX rats treated with topical alendronate, groups 4-7",similar
same,Ex vivo BMD L4 vertebrae Week 8,ovariectomized rats; [7],0.251 ± 0.012 g/cm^2
same,In vivo BMD Vertebrae Evolution (Week 8 − Baseline),ovariectomized rats; [7],0.035 ± 0.01 g/cm^2
same,In vivo BMD metaphysis Week 8,ovariectomized rats; [7],0.243 ± 0.029 g/cm^2
same,In vivo BMD total femur Evolution (Week 8 − Baseline),ovariectomized rats; [7],0.035 ± 0.015 g/cm^2
same,In vivo BMD total femur Week 8,ovariectomized rats; [7],0.291 ± 0.013 g/cm^2
same,Ex vivo BMD L4 vertebrae Week 8,ovariectomized rats; [8],0.26 ± 0.01 g/cm^2
same,In vivo BMD Vertebrae Evolution (Week 8 − Baseline),ovariectomized rats; [8],0.035 ± 0.012 g/cm^2
same,In vivo BMD metaphysis Week 8,ovariectomized rats; [8],0.270 ± 0.032 g/cm^2
same,In vivo BMD total femur Evolution (Week 8 − Baseline),ovariectomized rats; [8],0.04 ± 0.008 g/cm^2
same,In vivo BMD total femur Week 8,ovariectomized rats; [8],0.302 ± 0.015 g/cm^2
same,Ex vivo BMD L4 vertebrae Week 8,ovariectomized rats; [9],0.255 ± 0.017 g/cm^2
same,In vivo BMD Vertebrae Evolution (Week 8 − Baseline),ovariectomized rats; [9],0.023 ± 0.012 g/cm^2
same,In vivo BMD metaphysis Week 8,ovariectomized rats; [9],0.252 ± 0.009 g/cm^2
same,In vivo BMD total femur Evolution (Week 8 − Baseline),ovariectomized rats; [9],0.023 ± 0.016 g/cm^2
same,In vivo BMD total femur Week 8,ovariectomized rats; [9],0.293 ± 0.011 g/cm^2
same,Ex vivo BMD L4 vertebrae Week 8,ovariectomized rats; [10],0.261 ± 0.015 g/cm^2
same,In vivo BMD Vertebrae Evolution (Week 8 − Baseline),ovariectomized rats; [10],0.028 ± 0.008 g/cm^2
same,In vivo BMD metaphysis Week 8,ovariectomized rats; [10],0.264 ± 0.027 g/cm^2
same,In vivo BMD total femur Evolution (Week 8 − Baseline),ovariectomized rats; [10],0.032 ± 0.025 g/cm^2
same,In vivo BMD total femur Week 8,ovariectomized rats; [10],0.304 ± 0.024 g/cm^2
same,dermal tolerance problems,"ovariectomized rats; groups 4 and 7, topical 15.6 mg/kg/d and 15.6 mg/kg twice a week, doses reduced after 2 weeks",formation of dry scabs
same,BMD in the distal metaphysis (part of femur) compared with subcutaneous injection group (group 3),ovariectomized rats; topically treated groups 4 and 7,statistically higher
same,systemic dose recovered in the urine,[2],approximately 50%
same,bone recovery after oral administration,[3],0.9%
CC1CCC(C(C)C)C(O)C1 (stereo not shown) [menthol],Solubility of menthol in the presence of sodium alendronate,[4]; 10 g ethanol absolute,70 mg/100 g
same,Solubility of menthol in the presence of sodium risedronate,[4]; 10 g ethanol absolute,80 mg/100 g
same,Solubility of menthol in the presence of sodium alendronate,[4]; 20 g ethanol absolute,120 mg/100 g
same,Solubility of menthol in the presence of sodium risedronate,[4]; 20 g ethanol absolute,140 mg/100 g
"O=P(O)(O)C(O)(Cc1cccnc1)P(=O)(O)O [risedronate, 1-hydroxy-2-(3-pyridyl)ethylidene-1,1-bisphosphonic acid]",concentration of anhydrous monosodium salt at 90% saturation,[1]; [6],22.4 mg/g
same,concentration of anhydrous monosodium salt at 90% saturation,[1]; pure water,45.3 mg/g
same,effect of glycerine on amount recovered in the receptor fluid and the dermis,[5]; FIGS. 12-13,does not significantly increase
same,percutaneous absorption: recovery in the receptor fluid and the dermis,"[5]; Franz cell, human skin, 24 hrs",does cross the skin
same,effect of urea on amount recovered in the receptor fluid and dermis/skin,"[5]; buffered solution vs 100% phosphate buffer, FIGS. 10-11",increases
same,effect of menthol on amount recovered in the receptor fluid and dermis,"[5]; menthol at 90% of saturating concentration in 90/10 phosphate buffer/ethanol vs phosphate buffer solution, FIGS. 6-7",does not increase
same,amount recovered in the receptor fluid and the dermis with oleic acid,"[5]; oleic acid at 90% of maximum solubility in 90/10 phosphate buffer/ethanol with Tween 80 4.5%, vs 100% phosphate buffer solution",lower
same,effect of urea on amount recovered in the receptor fluid and dermis,"[5]; urea in phosphate buffer solution, FIGS. 8-9",neutral effect
same,effect of propylene glycol (PG) on amount recovered,"[5]; vs 100% phosphate buffer solution, FIGS. 10-11",does not significantly affect
same,effect of the increase in alcohol content on absorption (percentage of the dose applied),"[5]; water/alcohol solutions, FIGS. 1-2",slightly increased
